Test results from patent US20250345459A1, “COMPOUND OR SALT THEREOF, LIPID COMPOSITION, PHARMACEUTICAL COMPOSITION, AND DELIVERY CARRIER” (FUJIFILM Corporation, priority 2023, published 2025).

What was measured:
[1] = Particle size of EPO mRNA-encapsulating lipid nanoparticles; type: physicochemical; conditions: LNP with neutral lipid DSPC; mixed solution PBS; Lipid/Nucleic acid (wt/wt) 20
EPO mRNA = experiment: mRNA encapsulation rate of mRNA lipid nanoparticles; type: physicochemical; conditions: LNP with neutral lipid DSPC; mixed solution PBS; Lipid/Nucleic acid (wt/wt) 20
Summary of the method: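 Lipid nanoparticles made by microfluidic mixing of ionizable lipid:neutral lipid (DSPC or DOPE):cholesterol:DMG-PEG2000 (50:10:38.5:1.5 mol %) with mRNA in pH 4.0 citrate, then dialysed against Tris pH 7.4 with 8% sucrose. Total mRNA was measured by A260−A330 after methanol disruption, outer-phase mRNA by RiboGreen standard addition; encapsulation rate derived from both.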

ICR mice = experiment: EPO protein expression in mice after intravenous EPO mRNA lipid nanoparticles; type: in vivo; conditions: mRNA 0.1 mg/kg, plasma 6 hours after administration, neutral lipid DSPC, Lipid/Nucleic acid (wt/wt) 20, Comparative Example 1 is 1
Summary of the method: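 ICR mice given EPO mRNA lipid nanoparticles (ionized lipid:DSPC or DOPE:cholesterol:DMG-PEG2000 50:10:38.5:1.5 mol %) i.v. at 0.1 mg/kg mRNA. Plasma human EPO measured by ELISA 6 h post-dose, expressed relative to a comparator formulation set to 1.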

Particle size (nm) [1]: 165 nm
Nucleic acid encapsulation rate (%) (EPO mRNA): 80%
Compound: CCCCCCC(CCCC)COC(=O)CCCCN(CCCCCC)C(=O)OCCN(CCOC(=O)N(CCCCCC)CCCCC(=O)OCC(CCCC)CCCCCC)CCN(CC)CC (stereo not drawn) [Example 17, Bis(2-butyloctyl) 11-(2-(diethylamino)ethyl)-6,16-dihexyl-7,15-dioxo-8,14-dioxa-6,11,16-triazahenicosanedioate]
Relative amount of EPO protein (to Comparative Example 1) (ICR mice): 5.76
